This note sets out measurements from patent publication US20090137549A1, “Novel compounds useful for the treatment of degenerative & inflamatory diseases” (priority 2006, published 2009).

This assay deals with PDE1A (Homo sapiens, UniProt P54750). Put plainly: PDE1A dose response, Cyclic Nucleotide Phosphodiesterase Assay Kit from Biomol (colorimetric). Type of assay: biochemical. The note with it: purified PDE1A enzyme, 100 μM cAMP. The source says:
For the dose response and further screening, we used the Cyclic Nucleotide
Phosphodiesterase Assay Kit from Biomol, a colorimetric, non-radioactive assay. The basis for the assay is the cleavage of cAMP by PDE1A. The 5′AMP is further cleaved into the nucleoside and phosphate by the enzyme 5′-nucleotidase (catnr KI-307). The phosphate released due to enzymatic cleavage is quantified using BIOMOL GREEN™ reagent (catnr AK-111) in a modified Malachite Green assay^1,2. A PDE1A inhibitor will result in a decrease of the signal.
For the enzymatic reaction a mix of 25 μL with purified PDE1A enzyme, 100 μM cAMP, 5′Nucleotidase and the compound is made in a clear 384-plate. The reaction buffer is Tris 20 mM pH 7.4, 4 μg/mL calmodulin, 3 mM MgCl2, 1.5 mM CaCl2, 0.2 mg/mL BSA and 0.001% Brij-35. After an incubation of 45 minutes at 37° C., the reaction is stopped by the addition of 50 μL BIOMOL GREEN™ reagent. After 30 minutes incubation at room temperature, the readout is performed on the Envision (absorption at 615 nm).
All compounds are tested in duplicate starting from […] followed by a 1/3 serial dilution, 8 points (20 μM-6.67 μM-2.22 μM-740 nM-247 nM-82 nM-27 nM-9 nM) in a final concentration of 1% DMSO. As the positive dose response control compound Vardenafil is used. For the calculation of z′ and PIN values 10 μM Vardenafil is used as positive control (100% inhibition) and 1% DMSO as negative control (0% inhibition).
The following compounds have been or can be prepared according to the synthetic methods described above. For the purpose of Table 7 below, PDE1A activity of each compound, which can be determined using the assay methods described herein, is expressed as follows: […]
The compound `Cc1nn(C2CCCCC2)c2nc(C3CCCN(S(=O)(=O)c4ccccc4)C3)[nH]c(=O)c12` (centres unmarked) [Example 106, 1-cyclohexyl-3-methyl-6-(1-(phenylsulfonyl)piperidin-3-yl)-1H-pyrazolo[3,4-d]pyrimidin-4(5H)-one] displayed an IC50 of 1000 to 1500 nM. In the case of `Cc1nn(C2CCCCC2)c2nc(C3CCCN(C(=O)Oc4ccccc4)C3)[nH]c(=O)c12` (centres unmarked) [Example 124, phenyl 3-(1-cyclohexyl-3-methyl-4-oxo-4,5-dihydro-1H-pyrazolo[3,4-d]pyrimidin-6-yl)piperidine-1-carboxylate] it was 501 to 1000 nM; in that of `O=c1[nH]c(C2CN(c3nnc(-c4ccccc4)[nH]3)C2)nc2c1cnn2C1CCCCC1` [Example 158, 1-Cyclohexyl-6-(1-(5-phenyl-4H-1,2,4-triazol-3-yl)azetidin-3-yl)-1H-pyrazolo[3,4-d]pyrimidin-4-(5H)-one], 1 to 100 nM; in that of `Cc1nn(C2CCCCC2)c2nc(C3CCCN(C(=O)c4ccc(C(F)(F)F)cc4)C3)[nH]c(=O)c12` (centres unmarked) [Example 96, 1-cyclohexyl-3-methyl-6-(1-(4-(trifluoromethyl)benzoyl)piperidin-3-yl)-1H-pyrazolo[3,4-d]pyrimidin-4(5H)-one], 501 to 1000 nM.

As for `O=c1[nH]c(C2CN(c3ccc(CN4CCOCC4)cc3)C2)nc2c1cnn2C1CCCCC1` [Example 155, 1-Cyclohexyl-6-[1-(4-morpholin-4-ylmethyl-phenyl)-azetidin-3-yl]-1,5-dihydro-pyrazolo[3,4-d]pyrimidin-4-one], the IC50 was 1 to 100 nM. In the case of `CN1CCN(c2ccc(NC(=O)N3CC(c4nc5c(cnn5C5CCCCC5)c(=O)[nH]4)C3)cc2)CC1` [Example 3, 3-(1-cyclohexyl-4-oxo-4,5-dihydro-1H-pyrazolo[3,4-d]pyrimidin-6-yl)-N-(4-(4-methylpiperazin-1-yl)phenyl)azetidine-1-carboxamide] it was 1 to 100 nM; in that of `CC(C)(C)n1ncc2c(=O)[nH]c(C3CN(c4ccccn4)C3)nc21` [Example 163, 1-tert-Butyl-6-(1-pyridin-2-yl-azetidin-3-yl)-1,5-dihydro-pyrazolo[3,4-d]pyrimidin-4-one], 101 to 500 nM. Compound `O=C(Nc1ccc(F)c(F)c1)N1CC(c2nc3c(cnn3C3CCCCC3)c(=O)[nH]2)C1` [Example 20, 3-(1-cyclohexyl-4-oxo-4,5-dihydro-1H-pyrazolo[3,4-d]pyrimidin-6-yl)-N-(3,4-difluorophenyl)azetidine-1-carboxamide] yielded an IC50 of 1 to 100 nM. In turn, `Cc1cc(N2CC(c3nc4c(cnn4C4CCCCC4)c(=O)[nH]3)C2)ccc1[N+](=O)[O-]` [Example 149, 1-cyclohexyl-6-(1-(3-methyl-4-nitrophenyl)azetidin-3-yl)-1H-pyrazolo[3,4-d]pyrimidin-4(5H)-one] came in with an IC50 of 1 to 100 nM. In turn, `O=C(N1CCCCC1)N1CC(c2nc3c(cnn3C3CCCCC3)c(=O)[nH]2)C1` [Example 83, 1-cyclohexyl-6-(1-(piperidine-1-carbonyl)azetidin-3-yl)-1H-pyrazolo[3,4-d]pyrimidin-4(5H)-one] had an IC50 of 501 to 1000 nM. For `O=c1[nH]c(C2CN(c3ncc(CN4CCCCCC4)s3)C2)nc2c1cnn2C1CCCCC1` [Example 138, 6-(1-(5-(azepan-1-ylmethyl)thiazol-2-yl)azetidin-3-yl)-1-cyclohexyl-1H-pyrazolo[3,4-d]pyrimidin-4(5H)-one], the half-inhibitory concentration (IC50) is 101 to 500 nM. In the case of `O=C(NCCN1CCOCC1)N1CC(c2nc3c(cnn3C3CCCCC3)c(=O)[nH]2)C1` [Example 61, 3-(1-cyclohexyl-4-oxo-4,5-dihydro-1H-pyrazolo[3,4-d]pyrimidin-6-yl)-N-(2-morpholinoethyl)azetidine-1-carboxamide], the IC50 was in the range of 101 to 500 nM.

`CC(C)N1CCN(c2ccc(NC(=O)N3CC(c4nc5c(cnn5C5CCCCC5)c(=O)[nH]4)C3)cc2)CC1` [Example 2, 3-(1-Cyclohexyl-4-oxo-4,5-dihydro-1H-pyrazolo[3,4-d]pyrimidin-6-yl)-N-(4-(4-isopropylpiperazin-1-yl)phenyl)azetidine-1-carboxamide] displayed an IC50 of 1 to 100 nM. To `Cc1nn(-c2ccccc2)c2nc(C3CCCN(C(=O)c4ccc(N(C)C)cc4)C3)[nH]c(=O)c12` (centres unmarked) [Example 80, 6-(1-(4-(dimethylamino)benzoyl)piperidin-3-yl)-3-methyl-1-phenyl-1H-pyrazolo[3,4-d]pyrimidin-4(5H)-one] belongs 501 to 1000 nM; to `CC(=O)c1ccc(N2CC(c3nc4c(cnn4C4CCCCC4)c(=O)[nH]3)C2)cc1` [Example 147, 6-(1-(4-acetoylphenyl)azetidin-3-yl)-1-cyclohexyl-1H-pyrazolo[3,4-d]pyrimidin-4(5H)-one], 1 to 100 nM. To `N#C/N=C(/Nc1ccc(F)cc1)N1CC(c2nc3c(cnn3C3CCCCC3)c(=O)[nH]2)C1` [Example 177, N′-Cyano-3-(1-cyclohexyl-4-oxo-4,5-dihydro-1H-pyrazolo[3,4-d]pyrimidin-6-yl)-N-(4-fluorophenyl)azetidine-1-carboximidamide] belongs 1 to 100 nM; to `CC(C)(C)NC(=O)N1CC(c2nc3c(cnn3C3CCCCC3)c(=O)[nH]2)C1` [Example 38, N-tert-butyl-3-(1-cyclohexyl-4-oxo-4,5-dihydro-1H-pyrazolo[3,4-d]pyrimidin-6-yl)azetidine-1-carboxamide], 1 to 100 nM; to `Cc1nn(C2CCCCC2)c2nc(C3CCCN(S(=O)(=O)Cc4ccccc4)C3)[nH]c(=O)c12` (centres unmarked) [Example 103, 6-(1-(benzylsulfonyl)piperidin-3-yl)-1-cyclohexyl-3-methyl-1H-pyrazolo[3,4-d]pyrimidin-4(5H)-one], 1000 to 1500 nM. In the case of `O=c1[nH]c(C2CCCN(Cc3ccccc3)C2)nc2c1cnn2C1CCCCC1` (centres unmarked) [Example 176, 6-(1-Benzylpiperidin-3-yl)-1-cyclohexyl-1H-pyrazolo[3,4-d]pyrimidin-4(5H)-one] it was 1000 to 1500 nM; in that of `COc1ccccc1C(=O)N1CCCC(c2nc3c(c(C)nn3-c3ccccc3)c(=O)[nH]2)C1` (centres unmarked) [Example 90, 6-(1-(2-methoxybenzoyl)piperidin-3-yl)-3-methyl-1-phenyl-1H-pyrazolo[3,4-d]pyrimidin-4(5H)-one], 501 to 1000 nM; in that of `CC(C)(C)n1ncc2c(=O)[nH]c(C3CN(c4nccs4)C3)nc21` [Example 141, 1-tert-butyl-6-(1-(thiazol-2-yl)azetidin-3-yl)-1H-pyrazolo[3,4-d]pyrimidin-4(5H)-one], 501 to 1000 nM. `O=c1[nH]c(C2CN(c3nc(-c4ccccc4)c(CN4CCOCC4)s3)C2)nc2c1cnn2C1CCCCC1` [Example 162, 1-Cyclohexyl-6-(1-(5-morpholin-4-ylmethyl-4-phenylthiazol-2-yl)azetidin-3-yl)-1H-pyrazolo[3,4-d]pyrimidin-4-(5H)-one] showed an IC50 of 1 to 100 nM. For `O=c1[nH]c(C2CN(c3ncc(CN4CCOCC4)s3)C2)nc2c1cnn2C1CCCCC1` [Example 134, 1-cyclohexyl-6-(1-(5-(morpholinomethyl)thiazol-2-yl)azetidin-3-yl)-1H-pyrazolo[3,4-d]pyrimidin-4(5H)-one], the IC50 fell in the range of 101 to 500 nM.

For the compound `CC(C)(C)n1ncc2c(=O)[nH]c(C3CN(C(=O)Oc4ccc5c(c4)OCO5)C3)nc21` [Example 119, benzo[d][1,3]dioxol-5-yl 3-(1-tert-butyl-4-oxo-4,5-dihydro-1H-pyrazolo[3,4-d]pyrimidin-6-yl)azetidine-1-carboxylate], the IC50 was in the range of 1 to 100 nM. `CC(C)(C)n1ncc2c(=O)[nH]c(C3CN(C(=O)Oc4cccc(Cl)c4)C3)nc21` [Example 118, 3-chlorophenyl 3-(1-tert-butyl-4-oxo-4,5-dihydro-1H-pyrazolo[3,4-d]pyrimidin-6-yl)azetidine-1-carboxylate] had an IC50 of 1 to 100 nM.

In the case of `COc1ccc(S(=O)(=O)N2CCCC(c3nc4c(cnn4C4CCCCC4)c(=O)[nH]3)C2)cc1OC` (centres unmarked) [Example 44, 1-cyclohexyl-6-(1-(3,4-dimethoxyphenylsulfonyl)piperidin-3-yl)-1H-pyrazolo[3,4-d]pyrimidin-4(5H)-one], the IC50 lay within 1 to 100 nM.

Take `Cc1nn(C(C)(C)C)c2nc(C3CN(C(=O)Nc4ccc5c(c4)OCO5)C3)[nH]c(=O)c12` [Example 1, N-(Benzo[d][1,3]dioxol-5-yl)-3-(1-tert-butyl-3-methyl-4-oxo-4,5-dihydro-1H-pyrazolo[3,4-d]pyrimidin-6-yl)azetidine-1-carboxamide]: the IC50 lay within 1 to 100 nM.

`Cc1nn(C2CCCCC2)c2nc(C3CCCN(S(=O)(=O)c4cn(C)cn4)C3)[nH]c(=O)c12` (centres unmarked) [Example 98, 1-cyclohexyl-3-methyl-6-(1-(1-methyl-1H-imidazol-4-ylsulfonyl)piperidin-3-yl)-1H-pyrazolo[3,4-d]pyrimidin-4(5H)-one]: the IC50 fell in the range of 1000 to 1500 nM. Take `CN(C)c1ccc(NC(=O)N2CC(c3nc4c(cnn4C4CCCCC4)c(=O)[nH]3)C2)cc1` [Example 9, 3-(1-cyclohexyl-4-oxo-4,5-dihydro-1H-pyrazolo[3,4-d]pyrimidin-6-yl)-N-(4-(dimethylamino)phenyl)azetidine-1-carboxamide]: the IC50 lay within 1 to 100 nM.

As usually defined, the IC50 is the midpoint of a concentration-inhibition curve. A low value points to higher potency.
